Experimental data as given in patent US10131679B2, “Substituted dihydropyrrolopyrazole compound” (UBE INDUSTRIES, LTD., priority 2014, dated 2018).

Columns and labels:
[1] = tested on: IL-17 production in human PBMC-derived T cells; test: Human PBMC various-stimulant cocktail-induced IL-17 production inhibition test; format: cell-based; conditions: 120 h; human T-cell suspension from PBMC, cocktail of various stimulants, incubation for 5 days, ELISA
Description: Human PBMC Various-Stimulant Cocktail-Induced IL-17 Production Inhibition Test
PBMC was separated and collected by using Ficoll-Paque (17-1440-02 manufactured by GE Healthcare Japan Corp.) from blood collected from healthy human adult in the presence of heparin. The collected PBMC was further cultured in a flask for a certain time, and then, non-adherent cells in the supernatant were collected and used as a T-cell suspension. RPMI1640 medium (manufactured by GIBCO/Thermo Fisher Scientific, Inc., REF. 11875), which is containing 10% FBS (manufactured by GIBCO/Thermo Fisher Scientific, Inc., REF. 10082), 1% penicillin/streptomycin/amphotericin B (manufactured by GIBCO/Thermo Fisher Scientific, Inc., REF. 15240-096), 1% nonessential amino acids (manufactured by GIBCO/Thermo Fisher Scientific, Inc., REF. 11140-050), and 1% pyruvic acid (manufactured by GIBCO/Thermo Fisher Scientific, Inc., REF. 11140) and containing a test compound dissolved in DMSO, 2 μg/mL (final concentration) CD28 antibody (manufactured by BioLegend, Inc., Cat. No. 302914), 10 μg/mL (final concentration) human IFN-γ antibody (manufactured by BD Biosciences, Cat. No. 554698), 10 μg/mL (final concentration) human IL-4 antibody (manufactured by BD Biosciences, Cat. No. 554481), 20 ng/mL (final concentration) human IL-6 (manufactured by BioLegend, Inc., Cat. No. 570802), 10 ng/mL (final concentration) human IL-23 (manufactured by BioLegend, Inc., Cat. No. 574102), 10 ng/mL (final concentration) human IL-1(3 (manufactured by PeproTech Inc., Cat. No. 200-01B), and 10 ng/mL (final concentration) human TGF-13 (manufactured by BioLegend, Inc., Cat. No. 580702), was added at 100 μL/well to T cell Activation Plate Anti-Human CD3 96-well plate (manufactured by Corning Inc., REF. 354725). Subsequently, 100 μL of a T-cell suspension adjusted to 2×10^5 cells/mL was added to each well (final DMSO concentration: 0.1%). Only DMSO was added to wells in the absence of the test compound. After incubation for 5 days in a carbon dioxide incubator, the culture supernatant was collected and stored at −20° C. until IL-17 content measurement.
In the IL-17 content measurement in the culture supernatant, a sandwich ELISA kit (Quantikine Human IL-17, manufactured by R&D Systems, Inc.) was used. The IL-17 content of each sample was calculated from the calibration curve of Standard IL-17 included in the kit. When the amount of IL-17 produced by the cocktail of various stimulants in the case of the addition of only DMSO was defined as 100%, the rate of inhibition of IL-17 production at each concentration of the test compound was calculated. The concentration of the test compound necessary for inhibiting 50% of IL-17 production (IC50 value) was calculated from the concentration of the added test compound and the rate of inhibition of IL-17 production by the test compound by using EXSUS (version 8.0.0 or version 8.0.1, manufactured by CAC Exicare Corp.).

[2] = tested on: IL-2 production in human peripheral blood mononuclear cell (PBMC); test: Human PBMC CD3/CD28-induced IL-2 production inhibition test; format: cell-based; conditions: 48 h, CD3/CD28 stimulation, incubation for 2 days, ELISA
Description: Human Peripheral Blood Mononuclear Cell (PBMC) CD3/CD28-Induced IL-2 Production Inhibition Test
PBMC was separated and collected by using Ficoll-Paque (17-1440-02 manufactured by GE Healthcare Japan Corp.) from blood collected from healthy human adult in the presence of heparin. RPMI1640 medium (manufactured by GIBCO/Thermo Fisher Scientific, Inc., REF. 11875) containing 10% FBS (manufactured by GIBCO/Thermo Fisher Scientific, Inc. REF. 10082) and containing a test compound dissolved in DMSO and 2 μg/mL anti-hCD28 (manufactured by R&D Systems, Inc., Cat. No. MAB342) was added at 100 μL/well to T cell Activation Plate Anti-Human CD3 96-well plate (manufactured by Corning Inc., REF. 354725), and subsequently, a PBMC suspension adjusted such that the number of cells was 2×10^6 cells/mL was added at 100 μL/well (final DMSO concentration: 0.1%). A RPMI1640 medium containing 10% FBS and containing 0.1% DMSO and 2 μg/mL anti-hCD28 was similarly added to wells not supplemented with the test compound. After incubation for 2 days in a carbon dioxide incubator, the culture supernatant was collected. The collected culture supernatant was stored at −20° C. until IL-2 content measurement.
In the measurement of IL-2 content in the culture supernatant, a sandwich ELISA kit Quantikine Human IL-2 (manufactured by R&D Systems, Inc., Cat. No. S2050) was used. The IL-2 content of each sample was calculated from the calibration curve of Standard IL-2 included in the kit. When the amount of IL-2 produced by CD3/CD28 stimulation in the case of the addition of only DMSO was defined as 100%, the rate of inhibition of IL-2 production at each concentration of the test compound was calculated. A test compound concentration inhibiting 50% of IL-2 production was calculated as an IC50 value (nM) from the concentration of the added test compound and the rate of inhibition of IL-2 production by the test compound by using EXSUS (version 8.0.0 or version 8.0.1, manufactured by CAC Exicare Corp.).

CC(C)(CO)C(NC(=O)N1Cc2c(NC(=O)C3([Si](C)(C)C)CCC3)n[nH]c2C1(C)C)c1ccccc1 (single isomer, unassigned; (-)) [IV-673, (−)-N-(3-Hydroxy-2,2-dimethyl-1-phenylpropyl)-6,6-dimethyl-3-[1-(trimethylsilyl)cyclobutanecarboxamido]-4,6-dihydropyrrolo[3,4-c]pyrazole-5(1H)-carboxamide]
IC50 [1]: ≤ 50 nM

CC1(C)c2[nH]nc(NC(=O)C(C)(C)[Si](C)(C)C)c2CN1C(=O)N[C@H](CO)c1ccccc1 [II-114, (S)—N-(2-Hydroxy-1-phenylethyl)-6,6-dimethyl-3-[2-methyl-2-(trimethylsilyl)propanamido]-4,6-dihydropyrrolo[3,4-c]pyrazole-5(1H)-carboxamide]
IC50 [2]: ≤ 50 nM

CC1(C)c2[nH]nc(NC(=O)C3([Si](C)(C)C)CC3)c2CN1C(=O)N[C@H](CO)c1ccccc1 [III-114, (S)—N-(2-Hydroxy-1-phenylethyl)-6,6-dimethyl-3-[1-(trimethylsilyl)cyclopropanecarboxamido]-4,6-dihydropyrrolo[3,4-c]pyrazole-5(1H)-carboxamide]
IC50 [2]: ≤ 50 nM

CC1(C)c2[nH]nc(NC(=O)C3([Si](C)(C)C)CCC3)c2CN1C(=O)N[C@H](CO)c1ccccc1 [IV-114, (S)—N-(2-Hydroxy-1-phenylethyl)-6,6-dimethyl-3-[1-(trimethylsilyl)cyclobutanecarboxamido]-4,6-dihydropyrrolo[3,4-c]pyrazole-5(1H)-carboxamide]
IC50 [2]: ≤ 50 nM

COC[C@@H](NC(=O)N1Cc2c(NC(=O)C3([Si](C)(C)C)CCC3)n[nH]c2C1(C)C)c1ccccc1 [IV-123, (S)—N-(2-Methoxy-1-phenylethyl)-6,6-dimethyl-3-[1-(trimethylsilyl)cyclobutanecarboxamido]-4,6-dihydropyrrolo[3,4-c]pyrazole-5(1H)-carboxamide]
IC50 [2]: ≤ 50 nM

CCOC[C@@H](NC(=O)N1Cc2c(NC(=O)C3([Si](C)(C)C)CCC3)n[nH]c2C1(C)C)c1ccccc1 [IV-139, (S)—N-(2-Ethoxy-1-phenylethyl)-6,6-dimethyl-3-[1-(trimethylsilyl)cyclobutanecarboxamido]-4,6-dihydropyrrolo[3,4-c]pyrazole-5(1H)-carboxamide]
IC50 [2]: ≤ 50 nM

CC(C)(O)[C@@H](NC(=O)N1Cc2c(NC(=O)C3([Si](C)(C)C)CCC3)n[nH]c2C1(C)C)c1ccccc1 [IV-171, (S)—N-(2-Hydroxy-2-methyl-1-phenylpropyl)-6,6-dimethyl-3-[1-(trimethylsilyl)cyclobutanecarboxamido]-4,6-dihydropyrrolo[3,4-c]pyrazole-5(1H)-carboxamide]
IC50 [2]: ≤ 50 nM

CC1(C)c2[nH]nc(NC(=O)C3([Si](C)(C)C)CCC3)c2CN1C(=O)N[C@H](CCO)c1ccccc1 [IV-227, (R)—N-(3-Hydroxy-1-phenylpropyl)-6,6-dimethyl-3-[1-(trimethylsilyl)cyclobutanecarboxamido]-4,6-dihydropyrrolo[3,4-c]pyrazole-5(1H)-carboxamide]
IC50 [2]: ≤ 50 nM

CC1(C)c2[nH]nc(NC(=O)C3([Si](C)(C)C)CCC3)c2CN1C(=O)N[C@H](CCCO)c1ccccc1 [IV-283, (R)—N-(4-Hydroxy-1-phenylbutyl)-6,6-dimethyl-3-[1-(trimethylsilyl)cyclobutanecarboxamido]-4,6-dihydropyrrolo[3,4-c]pyrazole-5(1H)-carboxamide]
IC50 [2]: ≤ 50 nM

CC1(C)c2[nH]nc(NC(=O)C3([Si](C)(C)C)CCC3)c2CN1C(=O)NCC(O)c1ccccc1 (centres unmarked) [IV-450, N-(2-Hydroxy-2-phenylethyl)-6,6-dimethyl-3-[1-(trimethylsilyl)cyclobutanecarboxamido]-4,6-dihydropyrrolo[3,4-c]pyrazole-5(1H)-carboxamide]
IC50 [2]: ≤ 50 nM

CC1(C)c2[nH]nc(NC(=O)C3([Si](C)(C)C)CCC3)c2CN1C(=O)NC(c1ccccc1)C1(CO)CCC1 (centres unmarked) [IV-718, N-{[1-(Hydroxymethyl)cyclobutyl](phenyl)methyl}-6,6-dimethyl-3-[1-(trimethylsilyl)cyclobutanecarboxamido]-4,6-dihydropyrrolo[3,4-c]pyrazole-5(1H)-carboxamide]
IC50 [1]: ≤ 50 nM

CC1(C)c2[nH]nc(NC(=O)C3([Si](C)(C)C)CCC3)c2CN1C(=O)N[C@H](CC1(O)CC1)c1ccccc1 [IV-743, (R)—N-[2-(1-Hydroxycyclopropyl)-1-phenylethyl]-6,6-dimethyl-3-[1-(trimethylsilyl)cyclobutanecarboxamido]-4,6-dihydropyrrolo[3,4-c]pyrazole-5(1H)-carboxamide]
IC50 [1]: ≤ 50 nM

CC(C)(O)C[C@@H](NC(=O)N1Cc2c(NC(=O)C3([Si](C)(C)C)CCC3)n[nH]c2C1(C)C)c1cccc(F)c1 [IV-911, (R)—N-[1-(3-Fluorophenyl)-3-hydroxy-3-methylbutyl]-6,6-dimethyl-3-[1-(trimethylsilyl)cyclobutanecarboxamido]-4,6-dihydropyrrolo[3,4-c]pyrazole-5(1H)-carboxamide]
IC50 [1]: ≤ 50 nM

CC(C)(CO)C(NC(=O)N1Cc2c(NC(=O)C3([Si](C)(C)C)CCC3)n[nH]c2C1(C)C)c1cccc(F)c1 (centres unmarked) [IV-918, N-[1-(3-Fluorophenyl)-3-hydroxy-2,2-dimethylpropyl]-6,6-dimethyl-3-[1-(trimethylsilyl)cyclobutanecarboxamido]-4,6-dihydropyrrolo[3,4-c]pyrazole-5(1H)-carboxamide]
IC50 [1]: ≤ 50 nM

CC(C)(O)C[C@@H](NC(=O)N1Cc2c(NC(=O)C3([Si](C)(C)C)CCC3)n[nH]c2C1(C)C)c1ccc(F)cc1 [IV-939, (R)—N-[1-(4-Fluorophenyl)-3-hydroxy-3-methylbutyl]-6,6-dimethyl-3-[1-(trimethylsilyl)cyclobutanecarboxamido]-4,6-dihydropyrrolo[3,4-c]pyrazole-5(1H)-carboxamide]
IC50 [1]: ≤ 50 nM

CC(C)(CO)C(NC(=O)N1Cc2c(NC(=O)C3([Si](C)(C)C)CCC3)n[nH]c2C1(C)C)c1ccc(F)cc1 (centres unmarked) [IV-946, N-[1-(4-Fluorophenyl)-3-hydroxy-2,2-dimethylpropyl]-6,6-dimethyl-3-[1-(trimethylsilyl)cyclobutanecarboxamido]-4,6-dihydropyrrolo[3,4-c]pyrazole-5(1H)-carboxamide]
IC50 [1]: ≤ 50 nM

CC1(C)c2[nH]nc(NC(=O)C3([Si](C)(C)C)CCC3)c2CN1C(=O)[C@H](OC(F)(F)F)c1ccccc1 [IV-1184, (R)—N-{6,6-Dimethyl-5-[2-phenyl-2-(trifluoromethoxy)acetyl]-1,4,5,6-tetrahydropyrrolo[3,4-c]pyrazol-3-yl}-1-(trimethylsilyl)cyclobutanecarboxamide]
IC50 [1]: ≤ 50 nM
